ChEMBL document CHEMBL1201862, “PubChem BioAssay data set” (2004)
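Five compound concentrations were applied to cells in 96-well plates for 48 hours; endpoints were derived by simple linear interpolation of the resulting dose-response curve. GI50 is the concentration that inhibits growth by half.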 Calls of active or inactive are those of the source. No stated cut-off is given here; in the data, active = GI50 up to about 1.1 µM and inactive = higher.

Assays:
Assay in all cases: inhibition of tumour cell growth, NCI panel, 48 h
[1] = tested on: UO-31
[2] = tested on: HCT-116
[3] = tested on: NCI-H23
[4] = tested on: SNB-75
[5] = tested on: CAKI-1
[6] = tested on: MOLT-4
[7] = tested on: SW-620
[8] = tested on: MDA-MB-231
[9] = tested on: A498
[10] = tested on: NCI-H522
[11] = tested on: HOP-62
[12] = tested on: NCI-H226
[13] = tested on: RPMI-8226
[14] = tested on: SNB-19
[15] = tested on: 786-0
[16] = tested on: Hs-578T
[17] = tested on: SN12C
[18] = tested on: UACC-62
[19] = tested on: HOP-92
[20] = tested on: BT-549

CCN(CC)CCOC(=O)Cc1cccc2c(=O)cc(-c3ccccc3)oc12
GI50 [1]: 5.79 µM (inactive) | GI50 [2]: 48.3 µM (inactive) | GI50 [3]: 45.8 µM (inactive) | GI50 [4]: 41.7 µM (inactive) | GI50 [5]: 13.6 µM (inactive) | GI50 [6]: 42.9 µM (inactive) | GI50 [7]: 50.7 µM (inactive) | GI50 [8]: 26.4 µM (inactive) | GI50 [9]: 54.3 µM (inactive) | GI50 [10]: 40.8 µM (inactive) | GI50 [11]: 46.8 µM (inactive) | GI50 [12]: 38.8 µM (inactive) | GI50 [13]: 35.8 µM (inactive) | GI50 [14]: 56.1 µM (inactive) | GI50 [15]: 55.1 µM (inactive) | GI50 [16]: 28.3 µM (inactive) | GI50 [17]: 51.2 µM (inactive) | GI50 [18]: 29 µM (inactive) | GI50 [19]: 21.7 µM (inactive) | GI50 [20]: 40.7 µM (inactive)

COC(=O)C1=C(C)NC2=C(C(=O)c3ccccc32)C1c1cn(-c2ccccc2)nc1-c1ccccc1 (stereo not given)
GI50 [1]: 3.91 µM (inactive) | GI50 [2]: 12.1 µM (inactive) | GI50 [3]: 20.7 µM (inactive) | GI50 [4]: 1.56 µM (inactive) | GI50 [5]: > 100 µM (inactive) | GI50 [6]: 2.96 µM (inactive) | GI50 [7]: > 100 µM (inactive) | GI50 [8]: > 100 µM (inactive) | GI50 [9]: > 65.9 µM (inactive) | GI50 [10]: > 53.5 µM (inactive) | GI50 [11]: > 100 µM (inactive) | GI50 [12]: 74.1 µM (inactive) | GI50 [13]: 2.67 µM (inactive) | GI50 [14]: > 48.1 µM (inactive) | GI50 [15]: > 87.1 µM (inactive) | GI50 [16]: > 100 µM (inactive) | GI50 [17]: > 100 µM (inactive) | GI50 [18]: > 42.6 µM (inactive) | GI50 [19]: 18.3 µM (inactive) | GI50 [20]: 63.7 µM (inactive)

CCOc1cc2oc(C)cc(=O)c2c(OC)c1/C=N/c1ccc(Cn2c(C)nc3ccccc32)cc1
GI50 [1]: > 100 µM (inactive) | GI50 [2]: > 100 µM (inactive) | GI50 [3]: > 100 µM (inactive) | GI50 [4]: > 100 µM (inactive) | GI50 [5]: > 100 µM (inactive) | GI50 [6]: > 100 µM (inactive) | GI50 [7]: > 100 µM (inactive) | GI50 [8]: > 100 µM (inactive) | GI50 [9]: > 100 µM (inactive) | GI50 [10]: > 100 µM (inactive) | GI50 [11]: > 100 µM (inactive) | GI50 [12]: > 100 µM (inactive) | GI50 [13]: > 100 µM (inactive) | GI50 [14]: > 100 µM (inactive) | GI50 [15]: > 100 µM (inactive) | GI50 [16]: > 100 µM (inactive) | GI50 [17]: > 100 µM (inactive) | GI50 [18]: > 100 µM (inactive) | GI50 [19]: > 100 µM (inactive) | GI50 [20]: > 100 µM (inactive)

COc1cc2c(cc1OCCCCCOc1cc3c(cc1OC)C(=O)N1CCC[C@H]1C(=O)N3)N=C[C@@H]1CCCN1C2=O
GI50 [1]: 0.762 µM (active) | GI50 [2]: 0.193 µM (active) | GI50 [3]: 0.21 µM (active) | GI50 [4]: < 0.01 µM (active) | GI50 [5]: 0.839 µM (active) | GI50 [6]: < 0.01 µM (active) | GI50 [7]: 0.0875 µM (active) | GI50 [8]: 0.14 µM (active) | GI50 [9]: 0.218 µM (active) | GI50 [10]: 0.0112 µM (active) | GI50 [11]: 0.14 µM (active) | GI50 [12]: 0.166 µM (active) | GI50 [13]: 0.0301 µM (active) | GI50 [14]: 0.192 µM (active) | GI50 [15]: 0.0762 µM (active) | GI50 [16]: 0.258 µM (active) | GI50 [17]: 0.0711 µM (active) | GI50 [18]: 0.0736 µM (active) | GI50 [19]: 0.0299 µM (active) | GI50 [20]: 0.075 µM (active)

CC1=CC(=O)[C@@H](O)[C@]2(C)[C@H]3[C@@]4(O)OC[C@@]35[C@@H](C[C@@H]12)OC(=O)C(OC(=O)CC1=CCCC1)[C@H]5[C@@H](C)[C@H]4O (stereo not given in full)
GI50 [1]: 0.0668 µM (active) | GI50 [2]: 0.0255 µM (active) | GI50 [3]: 0.0187 µM (active) | GI50 [4]: 0.0423 µM (active) | GI50 [5]: 0.167 µM (active) | GI50 [6]: < 0.0145 µM (active) | GI50 [7]: 0.0622 µM (active) | GI50 [8]: 0.0559 µM (active) | GI50 [9]: 0.429 µM (active) | GI50 [10]: 0.0178 µM (active) | GI50 [11]: 0.024 µM (active) | GI50 [12]: 0.0167 µM (active) | GI50 [13]: < 0.0124 µM (active) | GI50 [14]: 0.0344 µM (active) | GI50 [15]: 0.0465 µM (active) | GI50 [16]: 0.0272 µM (active) | GI50 [17]: 0.0481 µM (active) | GI50 [18]: 0.0383 µM (active) | GI50 [19]: 0.0548 µM (active) | GI50 [20]: 0.0409 µM (active)

CCOC(=O)C1=C(C)OC(=O)[C@@]2(OC)C=C(Cl)[C@@]12C
GI50 [1]: > 100 µM (inactive) | GI50 [2]: > 100 µM (inactive) | GI50 [3]: > 100 µM (inactive) | GI50 [4]: > 100 µM (inactive) | GI50 [5]: > 100 µM (inactive) | GI50 [6]: > 100 µM (inactive) | GI50 [7]: > 100 µM (inactive) | GI50 [8]: > 100 µM (inactive) | GI50 [9]: > 100 µM (inactive) | GI50 [10]: > 100 µM (inactive) | GI50 [11]: > 100 µM (inactive) | GI50 [12]: > 100 µM (inactive) | GI50 [13]: > 100 µM (inactive) | GI50 [14]: > 100 µM (inactive) | GI50 [15]: > 100 µM (inactive) | GI50 [16]: > 100 µM (inactive) | GI50 [17]: > 100 µM (inactive) | GI50 [18]: > 100 µM (inactive) | GI50 [19]: > 100 µM (inactive) | GI50 [20]: > 100 µM (inactive)

CC(=O)NC(CS)C(=O)O (stereo not given)
GI50 [1]: 7640 µM (inactive) | GI50 [2]: 17600 µM (inactive) | GI50 [3]: 20200 µM (inactive) | GI50 [4]: 10700 µM (inactive) | GI50 [5]: 6030 µM (inactive) | GI50 [6]: 16400 µM (inactive) | GI50 [7]: 11000 µM (inactive) | GI50 [8]: 11300 µM (inactive) | GI50 [9]: 3970 µM (inactive) | GI50 [10]: 6500 µM (inactive) | GI50 [11]: 12800 µM (inactive) | GI50 [12]: 10500 µM (inactive) | GI50 [13]: 746 µM (inactive) | GI50 [14]: 16400 µM (inactive) | GI50 [15]: 21600 µM (inactive) | GI50 [16]: 18700 µM (inactive) | GI50 [17]: 26300 µM (inactive) | GI50 [18]: 27300 µM (inactive) | GI50 [19]: 12500 µM (inactive) | GI50 [20]: > 100 µM (inactive)

OC(c1ccc(F)cc1)(c1ccc(F)cc1)C1CC1
GI50 [1]: 21.3 µM (inactive) | GI50 [2]: 26.8 µM (inactive) | GI50 [3]: 17.5 µM (inactive) | GI50 [4]: 50.6 µM (inactive) | GI50 [5]: 25.3 µM (inactive) | GI50 [6]: 21.5 µM (inactive) | GI50 [7]: 25.6 µM (inactive) | GI50 [8]: 36.1 µM (inactive) | GI50 [9]: 29.2 µM (inactive) | GI50 [10]: 21.2 µM (inactive) | GI50 [11]: 65.9 µM (inactive) | GI50 [12]: 26.6 µM (inactive) | GI50 [13]: 26.9 µM (inactive) | GI50 [14]: 42.8 µM (inactive) | GI50 [15]: 29.2 µM (inactive) | GI50 [16]: 26.9 µM (inactive) | GI50 [17]: 20.9 µM (inactive) | GI50 [18]: 23.9 µM (inactive) | GI50 [19]: 33.8 µM (inactive) | GI50 [20]: 19.2 µM (inactive)

O=C(C=P(c1ccccc1)(c1ccccc1)c1ccccc1)c1ccc(-c2cccs2)cc1
GI50 [1]: 3.48 µM (inactive) | GI50 [2]: 3.74 µM (inactive) | GI50 [3]: 8.91 µM (inactive) | GI50 [4]: 3.56 µM (inactive) | GI50 [5]: 4.91 µM (inactive) | GI50 [6]: 2.15 µM (inactive) | GI50 [7]: 4.33 µM (inactive) | GI50 [8]: 9.79 µM (inactive) | GI50 [9]: 0.9 µM (active) | GI50 [10]: 3.35 µM (inactive) | GI50 [11]: 6.64 µM (inactive) | GI50 [12]: 2.86 µM (inactive) | GI50 [13]: 2.25 µM (inactive) | GI50 [14]: 2.96 µM (inactive) | GI50 [15]: 4.75 µM (inactive) | GI50 [16]: 18.5 µM (inactive) | GI50 [17]: 4.98 µM (inactive) | GI50 [18]: 1.64 µM (inactive) | GI50 [19]: 3.48 µM (inactive) | GI50 [20]: 20.5 µM (inactive)

O=C1O[C@]2(c3ccccc3)C(c3ccccc3)=C[C@]2(C(=O)c2ccccc2)C1=O
GI50 [1]: 27.9 µM (inactive) | GI50 [2]: 28.6 µM (inactive) | GI50 [3]: 33.7 µM (inactive) | GI50 [4]: 3.92 µM (inactive) | GI50 [5]: 36.9 µM (inactive) | GI50 [6]: 4.02 µM (inactive) | GI50 [7]: 19.1 µM (inactive) | GI50 [8]: 32.3 µM (inactive) | GI50 [9]: 35.5 µM (inactive) | GI50 [10]: 21.1 µM (inactive) | GI50 [11]: 34 µM (inactive) | GI50 [12]: 29.9 µM (inactive) | GI50 [13]: 25.8 µM (inactive) | GI50 [14]: 36.6 µM (inactive) | GI50 [15]: 26.2 µM (inactive) | GI50 [16]: 39.2 µM (inactive) | GI50 [17]: 33.4 µM (inactive) | GI50 [18]: 29.8 µM (inactive) | GI50 [19]: 24 µM (inactive) | GI50 [20]: 36.1 µM (inactive)
